Laboratory results published in patent US4451485A, “Treatment of cardio-vascular diseases with 3-(2,2,2-trimethylhydrazinium) propionate dihydrate” (Institu Organicheskogo Sinteza Akademii Nauk Latviiskoi SSR, priority 1981, dated 1984).
Several values for one entry are separate records, joined by “and”; a condition that tells them apart may be missing. Identical values can stand only once.

Experiments:
[1] = Arterial pressure, respiration and responses to biogenic amines in narcotized cats; assay type: in vivo
Method: The study of the preparation according to the present invention for arterial pressure, breathing and hemodynamic effects of norepinephrine, neoepinephrine, novoepinephrine, acetylcholine and histamine was carried out in experiments on cats with a mass of 2.8 to 4.0 kg narcotized by chlorase. There were then recorded the animals' arterial pressure, respiration and ECG on a physiograph produced by Narco Bio-Systems Co.

[2] = Threshold of electric fibrillation of auricles and ventricles in cats; assay type: in vivo
Method: Furthermore, the preparation according to the present invention was tested for specific antiarrhythmic and antianginal effects. […] The effect of the novel pharmaceutical composition according to the present invention was studied on cats weighing 2.9-3.6 kg. The preparation was used as a 10% aqueous solution containing 3-(2,2,2-trimethylhydrazinium)propionate for the determination of the threshold value of electric fibrillation of auricles and ventricles. Under artificial respiration after opening of the thorax and pericardium, needle-like electrodes were applied to the right auricula and apex of the left ventricle. The irritation was effected by square pulses of 1 m.s., 15 st/s.
For the comparison of preparations, as the criterion of the range of therapeutic effect, there was used the ratio of the half-lethal dose to the half-effective dose (LD50 /ED50) which was referred to as the antiarrhythmic index. […] The comparative study of the antiarrhythmic activity of pharmaceutical preparations using an acotine model of arrhythmia was effected in experiments on white rats weighing 190-240 g. The test preparations were administered intraperitoneally 10-40 minutes before administration of aconitine.

in vivo = assay: in vivo; parameters: species or system white mice; conditions: white mice
[3] = Physicochemical properties of the dihydrate (solubility, stability, hygroscopicity)
[4] = Strophanthin arrhythmia in guinea pigs (450 μg/kg); assay type: in vivo
Method: As the third model of arrhythmia, there was used strophanthin arrhythmia in guinea pigs. […] Against the background of arrhythmia the test preparations were administered intravenously.

[5] = Clinical study in patients with ischemic heart disease, peroral, 4 weeks; assay type: in vivo, men and women (patients with IHD); conditions: for hemodynamic impact: before treatment 14.6 + 1.2; for pulse pressure: before treatment 47.6 + 0.6; for isometric contraction: before treatment 53 + 2; for asynchron. contraction: before treatment 56 + 2; for distolic pressure: before treatment 68.2 + 0.6; for heart rate: before treatment 72.3 + 1.5; for average dynamic pressure: before treatment 89.7 + 1.2; for tension period: before treatment 109 + 4; for lateral systolic pressure: before treatment 115.8 + 0.5; for final systolic pressure: before treatment 130.4 + 2.0; for expulsion phase: before treatment 222 + 4; for rate of heart relaxation: before treatment 250 + 9; for volume of heart ejection: before treatment 315 + 15; for diastol.: before treatment 499 + 14; for involution period: before treatment 830 + 26; for rate of pressure raise: before treatment 1,188 + 30
Text: The following hemodynamic parameters were studied: rate of the heart's beat (RHB), electrocardiogram (ECG), all types of arterial pressure with the curve recording on a Mechanocardiograph 063 (Savitsky's model), beat ejection according to the Wremser-Ranke method, speed of pulse wave propagation, phase analysis of the left ventricle systole on an instrument Mingograph M-34, as well as amplitude time parameters (volume rate of ejection VRE, speed of pressure growth (SPG), rate of heart relaxation (RHR)).
For evaluation of contraction properties of myocardium separately during its systolic and diastolic periods of contraction there were used amplitude-time characteristics rate of heart ejection (RHE), rate of pressure rise (RPR) and rate of heart relaxation (RHR).
The rate of heart ejection (RHE) is determined by the formula: (BV6/E), wherein BV--beat volume in ml, E--time of the expulsion phase in seconds.
The rate of pressure rise is determined by the formula: [formula] wherein DP--diastolic pressure in mm, Hg, 5--conventional value of the final diastolic pressure in the aorta, IC--isometric contraction. RPR characterized contractive properties of the myocardium during the period of closed valves and its ability to rapidly surpass the value of pressure in the aorta for opening of the aortic valves.
The rate of heart relaxation (RHR) characterizes activity of the myocardium at the moment of diastole and is determined by the formula [formula] wherein SP--systolic pressure in the brachial artery in mm Hg, 5--conventional value of the final diastolic pressure in the aorta, D--duration of the diastolic period in seconds.

With `C[N+](C)(C)NCCC(=O)[O-]` [3-(2,2,2-trimethylhydrazinium)propionate] the “Change in arterial pressure, pulse frequency and respiration” value ([1]; 0.5 to 2.0 mg/kg intravenous) was “did not result in any essential change in arterial pressure, pulse frequency and respiration”, the “Level of responses to biogenic amines” value ([1]; 0.5 to 2.0 mg/kg intravenous) was “did not change changed the level of responses to biogenic amines” and the “Change in response to acetyl choline” value ([1]; 15-25 mg/kg) was 10-15%. The “Change in response to neoepinephrine” value ([1]; 15-25 mg/kg) was 5-10%, the “Increase of the response to histamine” value ([1]; 15-25 mg/kg) was 5-10% and the “Short-time reduction of arterial pressure” value ([1]; 15-25 mg/kg) was 5-20 mm Hg. The “Duration of increase of arterial pressure” value ([1]; 15-25 mg/kg, some cases) was 5 to 12 min, the “Increase of arterial pressure vs initial value” ([1]; 15-25 mg/kg, some cases) was 5-10 mm Hg and the “Blood pressure or response to biogenic amines” value ([1]; further increase of dose) was “did not cause changes in blood pressure or response to the administration of biogenic amines”. The “Increase of the threshold of electrical fibrillation of auricle and ventricles” value ([2]; 6 to 15 mg/kg intravenous) was 40-55%, the ED50 ([2]; Felis catus, iv, read-out: ED50, electric irritation of cat's heart) was 10 ± 3.5 mg/kg and the “Antiarrhythmic index LD50/ED50, electric irritation of cat's heart” value ([2]; intravenous) was 443 and 433. For the same molecule, the LD50 (in vivo; mouse, in vivo, intravenous (Table 2)) was 4430 mg/kg, the “Acute toxicity, LD50” value (in vivo; intravenous (Table 5)) was 4,430 mg/kg and the Hygroscopicity ([3]; dihydrate) was “slightly hygroscopic”. For the same molecule, the “Solubility in hot ethanol and methanol” value ([3]; dihydrate) was “well soluble”, the “Solubility in nonpolar solvents” value ([3]; dihydrate) was “insoluble” and the Solubility in water ([3]; dihydrate) was “well soluble”. For the same molecule, the Storage stability ([3]; dihydrate, closed area, room temperature) was 2 years, the Thermal stability ([3]; heating above 40° C.) was “loses crystallization water and slowly decomposes” and the ED50 ([4]; Cavia porcellus, intravenous, read-out: ED50, Strophanthin arrhythmia in guinea pigs) was 7.8 ± 2.3 mg/kg. The “Antiarrhythmic index LD50/ED50, Strophanthin arrhythmia in guinea pigs” value ([4]; guinea pig, in vivo) was 568, the “Duration for which Strophanthin-induced arrhythmia is cut short / ECG improved” value ([4]; intravenous) was 5 to 20 min and the hemodynamic impact ([5]; 1st week) was 18.2 + 1.0. For the same molecule, the pulse pressure ([5]; 1st week) was 46.5 + 1.1, the isometric contraction ([5]; 1st week) was 49 + 3 millisec and the asynchron. contraction ([5]; 1st week) was 55 + 4. For the same molecule, the distolic pressure ([5]; 1st week) was 69.9 + 1.3, the heart rate ([5]; 1st week) was 67.8 + 1.8 beat/min and the average dynamic pressure ([5]; 1st week) was 90.6 + 0.7. The tension period ([5]; 1st week) was 104 + 2 milliseconds, the lateral systolic pressure ([5]; 1st week) was 116.4 + 2.1 and the final systolic pressure ([5]; 1st week) was 134.6 + 1.6 mm/Hg. The expulsion phase ([5]; 1st week) was 225 + 2 milliseconds, the “rate of heart relaxation” value ([5]; 1st week) was 238 + 10 mm Hg/sec and the “volume of heart ejection” value ([5]; 1st week) was 320 + 23 ml/sec. For the same molecule, the diastol. ([5]; 1st week) was 543 + 21 milliseconds, the involution period ([5]; 1st week) was 873 + 33 and the “rate of pressure raise” value ([5]; 1st week) was 1,326 + 45 mm Hg/sec. The hemodynamic impact ([5]; 2nd week) was 24.6 + 0.7, the pulse pressure ([5]; 2nd week) was 48.6 + 1.6 and the isometric contraction ([5]; 2nd week) was 46 + 4 millisec. The asynchron. contraction ([5]; 2nd week) was 54 + 2, the distolic pressure ([5]; 2nd week) was 70.3 + 0.9 and the heart rate ([5]; 2nd week) was 64.3 + 1.3 beat/min. The average dynamic pressure ([5]; 2nd week) was 91.2 + 1.2, the tension period ([5]; 2nd week) was 100 + 4 milliseconds and the lateral systolic pressure ([5]; 2nd week) was 118.9 + 1.7. The final systolic pressure ([5]; 2nd week) was 143.5 + 1.8 mm/Hg, the expulsion phase ([5]; 2nd week) was 230 + 3 milliseconds and the “rate of heart relaxation” value ([5]; 2nd week) was 229 + 8 mm Hg/sec. The “volume of heart ejection” value ([5]; 2nd week) was 322 + 13 ml/sec, the diastol. ([5]; 2nd week) was 603 + 21 milliseconds and the involution period ([5]; 2nd week) was 933 + 42. The “rate of pressure raise” value ([5]; 2nd week) was 1,473 + 130 mm Hg/sec, the hemodynamic impact ([5]; 3rd week) was 24.9 + 1.5 and the pulse pressure ([5]; 3rd week) was 47.8 + 1.4. For the same molecule, the isometric contraction ([5]; 3rd week) was 43 + 2 millisec, the asynchron. contraction ([5]; 3rd week) was 56 + 4 and the distolic pressure ([5]; 3rd week) was 72.3 + 1.4. For the same molecule, the heart rate ([5]; 3rd week) was 60.1 + 1.6 beat/min, the average dynamic pressure ([5]; 3rd week) was 92.0 + 1.8 and the tension period ([5]; 3rd week) was 99 + 3 milliseconds. The lateral systolic pressure ([5]; 3rd week) was 120.1 + 1.4, the final systolic pressure ([5]; 3rd week) was 145.0 + 2.4 mm/Hg and the expulsion phase ([5]; 3rd week) was 232 + 4 milliseconds. The “rate of heart relaxation” value ([5]; 3rd week) was 209 + 8 mm Hg/sec, the “volume of heart ejection” value ([5]; 3rd week) was 374 + 14 ml/sec and the diastol. ([5]; 3rd week) was 669 + 14 milliseconds. The involution period ([5]; 3rd week) was 1000 + 42, the “rate of pressure raise” value ([5]; 3rd week) was 1,581 + 54 mm Hg/sec and the hemodynamic impact ([5]; 4th week) was 25.0 + 0.7. For the same molecule, the pulse pressure ([5]; 4th week) was 53.6 + 1.2, the isometric contraction ([5]; 4th week) was 33 + 2 millisec and the asynchron. contraction ([5]; 4th week) was 55 + 3. For the same molecule, the distolic pressure ([5]; 4th week) was 72.0 + 1.8, the heart rate ([5]; 4th week) was 62.2 + 1.4 beat/min and the average dynamic pressure ([5]; 4th week) was 92.2 + 1.0. The tension period ([5]; 4th week) was 88 + 2 milliseconds, the lateral systolic pressure ([5]; 4th week) was 125.6 + 0.7 and the final systolic pressure ([5]; 4th week) was 150.6 + 2.7 mm/Hg. The expulsion phase ([5]; 4th week) was 235 + 3 milliseconds, the “rate of heart relaxation” value ([5]; 4th week) was 226 + 12 mm Hg/sec and the “volume of heart ejection” value ([5]; 4th week) was 357 + 17 ml/sec. The diastol. ([5]; 4th week) was 642 + 14 milliseconds, the involution period ([5]; 4th week) was 965 + 21 and the “rate of pressure raise” value ([5]; 4th week) was 2,030 + 68 mm Hg/sec. The Arterial pressure ([5]; peroral) was “growth of all types of AP”, the Electrocardiographic findings ([5]; peroral) was “slight decrease of the rate of the heart's beat, disappearance of auricular and ventricular extrasystoles, reinversion of the T ripple and increase of its positive amplitude” and the “Phase analysis of the left ventricle” value ([5]; peroral, during the treatment) was “the involution period T was definitely increased, the phase of expulsion E was reduced, the period of tension PT shortened”. For the same molecule, the “Improvement of patients' state” value ([5]; peroral, first week) was “considerable improvement of the patients' state of health”.
